61 compounds from PubChem BioAssay AID1418 (Emory University Molecular Libraries Screening Center, 2008) can be followed below.

Molecules are shown by their SMILES. “And” between values parts separate entries of the source, which are not always exact repeats. Identical values can stand only once. The source made the active and inactive calls. The rule behind the calls is not given here.

One may read the IC50 as the concentration that gives 50% inhibition.

The target in this assay is Induced myeloid leukemia cell differentiation protein Mcl-1 (Homo sapiens) (UniProt Q07820). Description: blockers of Bid binding to Mcl-1 – biochemical, TR-FRET, dose response (AID 1418). To be noted: Mcl-1/Bid peptide binding, TR-FRET (europium/Dy647), 2 hr. Background: In TR-FRET formats the signal depends on donor and acceptor labels being close together.
Induced myeloid leukemia cell differentiation protein Mcl-1 (Homo sapiens), sequence (Q07820 whole entry, looked up): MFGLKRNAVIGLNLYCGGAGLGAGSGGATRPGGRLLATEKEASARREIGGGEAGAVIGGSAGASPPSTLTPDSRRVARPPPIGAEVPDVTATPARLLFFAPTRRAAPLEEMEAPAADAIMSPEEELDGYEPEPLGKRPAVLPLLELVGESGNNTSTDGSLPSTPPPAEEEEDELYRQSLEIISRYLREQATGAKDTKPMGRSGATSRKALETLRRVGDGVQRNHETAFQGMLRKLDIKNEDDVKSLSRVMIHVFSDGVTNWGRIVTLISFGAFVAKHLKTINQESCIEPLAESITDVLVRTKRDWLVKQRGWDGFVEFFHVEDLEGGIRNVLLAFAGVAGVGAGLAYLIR
Turning to `N#Cc1ccccc1Cn1c(-c2cscn2)nc2ccccc21`, the IC50 is > 54 µM (inactive).
The result for `O=C(Nc1cnn(C23CC4CC(CC(C4)C2)C3)c1)c1cnn2c(C(F)(F)F)cc(-c3ccco3)nc12` reads 1.38 µM.
Consider `NC(=S)n1[nH]c(-c2ccc([N+](=O)[O-])cc2)c(N=Nc2cccc(Cl)c2)c1=O`, for which the IC50 is 0.68 µM.
The value for `COc1cccc(C(=O)N2CCN(Cc3ccccn3)CC2)c1OC` was > 54 µM (inactive); that for `COc1ccc(CCNc2nc(-c3sc(C)nc3C)cs2)cc1OC` was “inactive”.
The value for `C=CCn1c(SCc2ccc(C#N)cc2)nnc1-c1cccc(OC)c1` was > 54 µM (inactive).
In the case of `Cc1ccc(CNC(=O)CCS(=O)(=O)c2cccc3nonc23)cc1`, the IC50 was > 54 µM (inactive).
In the case of `CCN(CC)c1ccc(NC(=O)Cn2c(C(C)NC(=O)c3ccc(C)cc3)nc3ccccc32)cc1` (stereo unspecified), the IC50 was 0.9 µM.
The result for `O=C(O)CCCN1C(=O)/C(=C/c2cn(-c3ccccc3)nc2-c2cccs2)SC1=S` reads 6.58 µM.
The result for `COc1cc(S(=O)(=O)Nc2cccc(C)c2)ccc1NC(=O)c1ccncc1` reads > 54 µM (inactive); that for `COc1ccc(NC(C)C(=O)Nc2ccc(C#N)cc2)cc1Cl` (stereo unspecified), > 54 µM (inactive).
The result for `CC1(c2ccccc2)CC(C)(C)N2C(=O)/C(=C3\SC(=S)NC3=O)c3cccc1c32` (stereo unspecified) reads 2.16 µM; that for `COC(=O)c1cc(NC(=S)NCc2ccc(Cl)cc2)cc(C(=O)OC)c1`, > 54 µM (inactive).
On to `CCOC(=O)c1cc2occc2n1CC(=O)NC1CCCCC1C` (stereo unspecified), for which the IC50 was > 54 µM (inactive).
Regarding `CC(/C=N\Nc1nnc2c(n1)[nH]c1c(C)cccc12)=C\c1ccco1`, the half-inhibitory concentration (IC50) was 1.66 µM.
The result for `Fc1cc(F)c2nc(Nc3nc4cc5c(cc4s3)OCO5)sc2c1` reads 0.59 µM.
The value for `COC(=O)c1sccc1NC(=O)c1cc(C)on1` was > 54 µM (inactive); that for `COc1cccc(NC(=O)C(=O)N/N=C/c2cc(C)n(-c3ccc(Cl)c(Cl)c3)c2C)c1` was > 54 µM (inactive).
The result for `Nc1c(C(=O)NCCc2ccccc2)c2nc3ccccc3nc2n1CCN1CCOCC1` reads > 54 µM (inactive).
With `Cc1ccc(NC(=O)CN2C(=O)S/C(=C/c3ccc(-c4cc(C(=O)O)ccc4C)o3)C2=O)cc1C`, the IC50 is 2.69 µM.
The result for `c1ccc(CSc2nnc(-c3ccco3)c(-c3ccco3)n2)cc1` reads 10.2 µM.
The value for `CC(=O)Oc1ccc(Cl)cc1/C=C/c1ccc2ccccc2n1` was > 54 µM (inactive); that for `O=c1c2cc(Cl)ccc2nc(-c2ccccc2Cl)n1O` was > 54 µM (inactive).
With `COc1ccc(OC(=O)c2ccncc2)cc1`, the IC50 was > 54 µM (inactive).
Take `CCOC(=O)c1cccc(NC(=O)CCNS(=O)(=O)c2ccc3c(c2)CCN3C(=O)CC)c1`: the IC50 was > 54 µM (inactive).
The result for `O=C(Nc1cccc(-c2csc(-c3ccccc3)n2)c1)c1cccs1` reads > 54 µM (inactive).
`Cc1cc2c(C(C)C)c(O)c(O)c(C=O)c2c(O)c1-c1c(C)cc2c(C(C)C)c(O)c(O)c(C=O)c2c1O`: the half-inhibitory concentration (IC50) is 1.17 µM and 0.86 µM.
As for `Cc1ccc(-c2cc(-c3ccc4c(c3)OCO4)c(C#N)c(N)n2)o1`, the IC50 is 16.4 µM.
The result for `CC(/C=C1\SC(=S)N(CCCC(=O)Nc2ccc(C(=O)O)c(O)c2)C1=O)=C\c1ccccc1` reads 3.49 µM.
The result for `COc1ccc(OC)c(-n2c(N)c(C(=O)NCC3CCCO3)c3nc4ccccc4nc32)c1` (stereo unspecified) reads > 54 µM (inactive).
Take `N=C1/C(=C/c2cccn2-c2cccc([N+](=O)[O-])c2)C(=O)N=C2SC=CN12`: the IC50 was 12.5 µM.
The value for `C#CCOCCOCCOCCNc1nc(N2CCN(C(=O)[C@H](Cc3cc4ccccc4[nH]3)n3cc([C@@H](N)CC(C)C)nn3)CC2)nc(N2CCN(C(=O)[C@H](Cc3cc4ccccc4[nH]3)n3cc([C@@H](N)CC(C)C)nn3)CC2)n1` was 24.2 µM.
As for `Cc1ccc2nc(N3CC(=O)Nc4ccccc43)nc(-c3ccccc3)c2c1`, the IC50 was > 54 µM (inactive).
The value for `CCOc1cc(N2CCOCC2)c(OCC)cc1NC(=O)CCS(=O)(=O)c1ccc(Cl)cc1` was > 54 µM (inactive).
Consider `CN(CCO)S(=O)(=O)c1ccc2c(c1)C(=NO)c1cc(S(=O)(=O)N(C)CCO)ccc1-2`, for which the IC50 is > 54 µM (inactive).
The value for `COc1cc(-c2nc(-c3ccc(NC(=O)c4ccc(Br)o4)cc3)no2)cc(OC)c1OC` was 1.81 µM; that for `Cc1ccc(S(=O)(=O)CCC(=O)OCC(=O)Nc2ncc(Cl)cc2Cl)cc1` was > 54 µM (inactive).
With `CCCCN(C)C(=O)c1coc(=O)c2ccccc12`, the IC50 is > 54 µM (inactive).
`NC(=O)c1cnn2c(-c3cccc(C(F)(F)F)c3)ccnc12`: the IC50 is > 54 µM (inactive).
The value for `Cc1ccc(CNc2nc(C)nc3sc4c(c23)CCC4)cc1` was > 54 µM (inactive); that for `O=[N+]([O-])/C(C(Cl)=C(Cl)Cl)=C(\Nc1ccc(F)cc1)n1cncn1` was 17.4 µM; that for `CN(C)c1ccc(-c2nn3c(-c4ccc(Cl)cc4Cl)nnc3s2)cc1` was 0.77 µM.
For `C#Cc1ccc([C@@H]2C=C(C(=O)N3CCN(Cc4ccc5c(c4)OCO5)CC3)O[C@H](OCCCCO)C2)cc1`, the IC50 is > 54 µM (inactive).
Regarding `COc1ccc(C(=O)C2CCCN(Cc3cn[nH]c3-c3ccc(F)cc3)C2)cc1OC` (stereo unspecified), the IC50 is > 54 µM (inactive).
On to `Oc1[nH]c2ccccc2c1/C=N/N1CCCCC1`, for which the IC50 was > 54 µM (inactive).
The result for `C=CCOC(=O)/C=C/C(=O)NC(N)=O` reads > 54 µM (inactive).
The value for `CC1(C(=O)NNC(=O)C2CCCCC2)CC1(Cl)Cl` (stereo unspecified) was > 54 µM (inactive); that for `Cc1cccc(NC(=O)c2cc(N3C(=O)CCC3=O)ccc2Cl)n1` was > 54 µM (inactive); that for `NC(=O)NC(CC(=O)NCCc1ccc(S(N)(=O)=O)cc1)c1ccc(Cl)cc1` (stereo unspecified) was > 54 µM (inactive).
Consider `Cc1ccc(CNC(=O)c2ccc3nc4[nH]c5ccccc5c4nc3c2)cc1`, for which the IC50 is 6.82 µM.
The value for `O=C(Nc1ccc(F)cc1)Nc1ccc(Oc2ncnc3cc(Cl)ccc23)nc1` was > 54 µM (inactive); that for `NC(=S)n1[nH]c(-c2ccc([N+](=O)[O-])cc2)c(N=Nc2cccc([N+](=O)[O-])c2)c1=O` was 2.37 µM.
For `COc1ccc(C(C)=O)cc1COc1ccc(Cl)cc1Cl`, the IC50 was > 54 µM (inactive).
The value for `O=C(Cc1sc(-c2ccccc2Cl)nc1-c1ccccc1)Nc1ccccc1` was > 54 µM (inactive); that for `CCS(=O)(=O)N1CCN(C(C)CCc2ccccc2)CC1` (stereo unspecified) was > 54 µM (inactive).
The result for `NC(=S)Nc1ccc(F)cc1F` reads > 54 µM (inactive); that for `O=C1c2ccccc2C(=O)C1Cc1cccc2ccccc12`, 8.94 µM; that for `Nc1nnc(SCC(=O)N2CCN(c3ccccc3)CC2)n1-c1ccccc1`, > 54 µM (inactive).
The value for `O=C(O)c1cccc(-n2cccc2/C=C2/NC(=O)N(c3ccc(Cl)cc3)C2=O)c1` was 0.53 µM.
Regarding `COc1cccc(CNC(=O)C2CCN(S(=O)(=O)N3CCCCC3)CC2)c1`, the IC50 was > 54 µM (inactive).
The result for `O=[N+]([O-])C(=c1ccc2c(c1)N1C3=C(CCCC3)CC3CCCCC31N=2)[N+](=O)[O-]` (stereo unspecified) reads 0.73 µM.
